Like-named read-outs stand apart in the source and are kept apart here.
Conditions: solid state
[1] = amber type II glass, away from light, t0, % area HPLC 240 nm
[2] = amber glass, away from light, t = 1 month
[3] = amber glass, away from light, t = 5 month
[4] = amber glass, away from light, t = 4 months
[5] = amber glass, away from light, t = 2 months
[6] = amber glass, away from light, t = 6 months

Description: The elution is carried out by gradient. The mobile phase consists of ammonium formiate buffer 100 mM pH 4.5 (eluent A) and acetonitrile (eluent B). The composition of the mobile phase was modified continuously during the elution process according to the following Table II:

SMILES | ICG purity (HPLC) [1] | Total impurities (HPLC) [1] | ICG purity (HPLC) (t = 8 weeks) | Total impurities (HPLC) (t = 8 weeks) | other results
CC1(C)C(/C=C/C=C/C=C/C=C2\N(CCCCS(=O)(=O)[O-])c3ccc4ccccc4c3C2(C)C)=[N+](CCCCS(=O)(=O)[O-])c2ccc3ccccc3c21.[Na+] [NaOAc, Indocyanine green] | 99.95% | 0.05% | 99.65% | 0.35% | 
CC1(C)C(/C=C/C=C/C=C/C=C2\N(CCCCS(=O)(=O)[O-])c3ccc4ccccc4c3C2(C)C)=[N+](CCCCS(=O)(=O)[O-])c2ccc3ccccc3c21.[Na+] [Example 3, Indocyanine green] | 98.60% | 1.40% |  |  | ICG purity (HPLC) [2]: 98.39%; Total impurities (HPLC) [2]: 1.61%; ICG purity (HPLC) [3]: 97.95%; Total impurities (HPLC) [3]: 2.05%
CC1(C)C(/C=C/C=C/C=C/C=C2\N(CCCCS(=O)(=O)[O-])c3ccc4ccccc4c3C2(C)C)=[N+](CCCCS(=O)(=O)[O-])c2ccc3ccccc3c21.[Na+] [Example 4, Indocyanine green] | 95.98% | 4.02% |  |  | ICG purity (HPLC) [4]: 94.11%; Total impurities (HPLC) [4]: 5.89%
CC1(C)C(/C=C/C=C/C=C/C=C2\N(CCCCS(=O)(=O)[O-])c3ccc4ccccc4c3C2(C)C)=[N+](CCCCS(=O)(=O)[O-])c2ccc3ccccc3c21.[Na+] [NaBr, Indocyanine green] | 99.95% | 0.05% |  |  | ICG purity (HPLC) (t = 4 weeks): 99.84%; Total impurities (HPLC) (t = 4 weeks): 0.16%
CC1(C)C(/C=C/C=C/C=C/C=C2\N(CCCCS(=O)(=O)[O-])c3ccc4ccccc4c3C2(C)C)=[N+](CCCCS(=O)(=O)[O-])c2ccc3ccccc3c21.[Na+] [Example 2, Indocyanine green] | 99.21% | 0.79% |  |  | ICG purity (HPLC) [2]: 99.25%; Total impurities (HPLC) [2]: 0.75%; ICG purity (HPLC) [5]: 99.09%; Total impurities (HPLC) [5]: 0.91%; ICG purity (HPLC) [6]: 99.03%; Total impurities (HPLC) [6]: 0.97%
CC1(C)C(/C=C/C=C/C=C/C=C2\N(CCCCS(=O)(=O)[O-])c3ccc4ccccc4c3C2(C)C)=[N+](CCCCS(=O)(=O)[O-])c2ccc3ccccc3c21.[Na+] [NaOAsc, Indocyanine green] | 99.95% | 0.05% | 99.72% | 0.28% | 
CC1(C)C(/C=C/C=C/C=C/C=C2\N(CCCCS(=O)(=O)[O-])c3ccc4ccccc4c3C2(C)C)=[N+](CCCCS(=O)(=O)[O-])c2ccc3ccccc3c21.[Na+] [NaOEt, Indocyanine green] | 99.58% | 0.42% | 99.34% | 0.66% | 

Source: US20250340739A1 ([…] SOLUTIONS, priority 2022, published 2025)
